Experimental data as given in patent US11135445B2, “Antimicrobial photodynamic inactivation procedure and system” (The General Hospital Corporation, priority 2014, dated 2021).

Columns and labels:
[1] = system: mammalian dermal skin fibroblasts; experiment: Effect of KI in vitro on mammalian cells; format: cell-based; details: 3 hours, KI 0.001-10 mM
S. aureus = experiment: Toxicity of KI alone on bacteria; format: cell-based, Staphylococcus aureus (NCTC 8325); details: KI 0-50 mM, 10 minutes, dark control and 5 J/cm^2 red light
Description: (§1) Since there existed a possibility that KI itself could exert an antimicrobial effect, to eliminate or at least account for the direct influence of the KI on the bacteria and to ensure that the final efficiency of the PDI process is attributed to the potentiation of the MB with the KI, additional qualitative performance evaluation tests were performed. Specifically, the bacteria cells (10^8 CFU; 500 uL) were incubated with different concentrations of KI (0-50 mM) for 10 minutes in order to verify the toxicity of KI. An aliquot of 100 μl from each sample, was used as dark control, another (100 μl) was irradiated with 5 J/cm^2 dose of light (660 nm light) and then placed in a new 96 well plate. The aliquots were serially diluted as before. The results presented in FIGS. 2A, 2B (for S. aureus and E. coli) verified that KI itself was not responsible for the increased potency of the PDI treatment observed in the experiments with the MCPPS.

[2] = Time-resolved singlet oxygen detection (1,270-nm phosphorescence); format: physicochemical
Description: The interaction of iodide with singlet oxygen photogenerated by RB was examined directly by measuring the lifetime of singlet oxygen at different concentrations of KI and indirectly by monitoring the effect of increasing concentrations of iodide on oxygen uptake induced by irradiation of the RB solution with green light. Time-resolved singlet oxygen detection was carried out as follows. Phosphate-buffered (pH 7.2) D2O solutions of RB (optical densitv,=0.25 to 0.3 at 550 nm) in a 1-cm-optical-path quartz fluorescence cuvette (catalog number QA-1000; Hellma, Mullheim. Germany) were excited by 550-nm pulses generated by an integrated nanosecond neodymium-doped yttrium aluminum garnet laser system equipped with a narrow-band-width optical parametric oscillator (model NT242-1k-SH/SFG; Ekspla. Vilnius, Lithuania), which delivered pulses at a repetition rate of 1 kHz with energy of up to several hundred microjoules in the visible region. […] The near-infrared luminescence (1,270 nm) was measured perpendicularly to the excitation beam in a photon-counting mode using a thermoelectric cooled near-infrared photomultiplier tube (NIR PMT) module (model H10330-45; Hamamatsu, Japan) equipped with a 1,100-nm-cutoff filter and an additional dichroic narrow-band filter narrow-band pass (NBP), selectable from the spectral range of 1,150 to 1,355 nm (NDC Infrared Engineering Ltd., Maldon, Essex, UK). […]

E. coli [3] = experiment: Toxicity of KI alone on bacteria; format: cell-based, Escherichia coli K12 (ATCC 33780); details: KI 0-50 mM, 10 minutes, dark control and 5 J/cm^2 red light
Description: as §1

MRSA = experiment: RB-mediated aPDI in vitro with/without KI; format: cell-based, methicillin-resistant Staphylococcus aureus (MRSA) USA 300
Description: (§2) A source of green light was configured from a white lamp and a band-pass filter probe (wavelength, 540±15 nm Lumacare, Newport Beach, Calif., USA) to deliver light over a spot of 4 cm in diameter to simultaneously irradiate four wells of a 24-well plate in vitro or the whole abrasion in vive at an irradiance of 100 mW/cm^2. Light power was measured with a power meter (model DMM 199 with a 201 standard head; Coherent, Santa Clara, Calif., USA).
(§3) The following microbial strains were used: the Gram-positive bacterium methicillin-resistant Staphylococcus aureus (MRSA) USA 300, Gram-negative bacteria Escherichia coli K-12 (ATCC 33780) and Pseurdomonas aeruginosa ATCC 19660 (Xen 5P), and strain CEC 749 of the luciferase-expressing fungal yeast Candida albicans. A colony of bacteria or fungal yeast was suspended in 20 ml of brain heart infusion (BHI) broth for bacteria or yeast extract-peptone-dextrose (YPD) for C. albicans and grown overnight in a shaker incubator (New Brunswick Scientific, Edison, N.J.) at 120 rpm under aerobic conditions at 37° C. for bacteria and at 30° C. for C. albicans. For bacteria, an aliquot of 1 ml from an overnight bacterial suspension was refreshed in fresh BHI for 2 to 3 h at 37° C. to mid-log phase. The cell concentration was estimated by measuring the optical density (OD) at 600 nm (OD of 0.6=10^8 cells/ml). The C. albicans cell number was assessed with a hemocytometer and was generally between 10^7 and 10^8 cells/ml.
(§4) Two types of in vitro aPDI experiments were carried out. The first experiments used cells with fixed RB and KI concentrations while varying the dose of irradiating light. The second type of experiments used cells with a fixed RB concentration and a fixed light dose while varying the KI concentration. Here, comparison was performed based on the order of addition of the components and the effect of centrifugation. […]

P. aeruginosa [4] = experiment: RB-mediated aPDI in vitro with/without KI; format: cell-based, Pseudomonas aeruginosa ATCC 19660 (Xen 5P); details: no KI
Description: as §2
as §3, with “The cell concentration was estimated by measuring the optical density (OD) at 600 nm (OD of 0.6=10^8 cells/ml).” left out, “cells/ml. […]” for “cells/ml.”

E. coli [5] = experiment: RB-mediated aPDI in vitro with/without KI; format: cell-based, Escherichia coli K-12 (ATCC 33780); details: for killing: 10 μM RB
Description: as §2, §3, §4

C. albicans = experiment: RB-mediated aPDI in vitro with/without KI; format: cell-based, Candida albicans CEC 749
Description: as §2
as §3, with “The cell concentration was estimated by measuring the optical density (OD) at 600 nm (OD of 0.6=10^8 cells/ml).” left out, “cells/ml. […]” for “cells/ml.”

P. aeruginosa [6] = experiment: In vivo PDT of skin abrasions infected with bioluminescent P. aeruginosa; set-up: species or system BALB/c mice; details: RB 500 μM, up to 20 J/cm^2
Description: The Pseudomonas aerugenosa strain used in this work was ATCC 19660 (Xen 5P). Bacteria were routinely grown in BHI with aeration in an orbital incubator at 100 rpm and 37° C. overnight to stationary phase. An aliquot of this suspension was then refreshed in fresh BHI to mid-log phase. Cell numbers were estimated by measuring the OD at 600 nm (OD of 0.6=10^8 CFU cells/ml). The bacterial suspension was centrifuged, washed, and resuspended in PBS, and the suspension was diluted 10-fold for the in vivo experiments.
An IVIS Lumina series III in vivo imaging system (PerkinElmer, Inc., Waltham, Mass., USA) was applied for bioluminescence imaging on a daily basis until the disappearance of the infection by bioluminescence imaging. Using the photon counting mode, an image can be obtained by detecting and integrating individual photons emitted by the bacterial cells. Prior to PDT and imaging, mice were anesthetized by intraperitoneal (i.p.) injection of a ketamine-xylazine cocktail. […] The signal from the bioluminescence image was quantified as the region of interest (ROI), with absolute calibrated data being given as the number of photons/(s cm^2 sr), using the IVIS software. […]
Mice were divided into four groups of 5 mice each. […] Then, the wounds were irradiated with green light at a fluence of up to 20 J/cm^2, and luminescence imaging was performed after irradiation.

[I-].[K+] [KI, potassium iodide]
killing of mammalian cells by KI [1]: did not kill mammalian cells
bacteria killing by KI alone (S. aureus): no bacteria killing was found
shortening of observable lifetime of singlet oxygen-dependent luminescence ([2]; 35 mM KI, RB in D2O): more than 3 fold
bimolecular rate constant of quenching (kq) of singlet oxygen ([2]; RB-photogenerated singlet oxygen, KI 0 to 50 mM): 1.1*10^6 l/(m*s)
bacteria killing by KI alone (E. coli [3]): no bacteria killing was found

O=C1OC2(c3cc(I)c(O)c(I)c3Oc3c2cc(I)c(O)c3I)c2c(Cl)c(Cl)c(Cl)c(Cl)c21 [RB, Rose bengal]
killing (MRSA; 100 nM RB plus light, no KI): 1 to 2 logs
killing after a spin (centrifugation) (MRSA; 100 nM RB, 10 J/cm^2): centrifugation abolished the killing
RB concentration that produced eradication (MRSA; RB as antimicrobial PS plus light): 200 nM
killing by RB aPDI in the absence of KI (P. aeruginosa [4]): almost no killing
killing (E. coli [5]; no KI, 20 J/cm^2 540 nm): 2 logs
killing (E. coli [5]; with or without 100 mM KI, 10 J/cm^2 540 nm): less than 1 logs
killing by RB aPDI in the absence of KI (E. coli [5]; no KI): almost no killing
killing (C. albicans; 10 μM RB plus light, no KI, either fluence (10, 20 J/cm^2)): no killing
killing, cells centrifuged after incubation with RB (C. albicans; 10 μM RB, 10 J/cm^2, KI up to 100 mM): some minor killing after centrifugation
reduction in the bioluminescence signal with 540-nm light (P. aeruginosa [6]): only a slight reduction
